Data set [1] has as its system Mus musculus. The data set can be described thus: Inhibition of triglyceride synthesis in a lipid challenged C57BL6J mouse administered orally. The format is functional. To be noted: po.
Data set [2] is described as follows: Lipophilicity, log D of the compound at pH 7.4. Format: physicochemical. The note with it: buffer.
Data set [3] deals with Rattus norvegicus. The experiment in a line: Toxicity in rat assessed as histopathological signs up to 500 mg/kg. Format: organism-based. Further details: dose 500 mg/kg. The note with it: in vivo.
For data set [4], the species on record is Mus musculus. To be noted: C57BL6J, 1 to 3 mg/kg.
Description: Inhibition of triglyceride synthesis in a lipid challenged C57BL6J mouse at 1 to 3 mg/kg, po coadministered with bolus of lipid
The test system of the next data set is Liver microsomes. The data set can be described thus: Stability of the compound in human liver microsomes at 10 uM after 30 mins in presence of glutathione ethyl ester. The format is ADME, Microsome. To be noted: 0.5 h. In general terms: Microsomes from liver hold many membrane-bound enzymes, among them those of drug oxidation.
The subject of data set [5] is Rattus norvegicus. The data set can be described thus: Toxicity in rat assessed as hematological signs up to 500 mg/kg. The format is organism-based. To be noted: in vivo. Further details: dose 500 mg/kg.
For a further data set, the system named is Salmonella typhimurium. The data set can be described thus: Genotoxicity in Salmonella Typhimurium by Ames test. Format: toxicity, organism-based. To be noted: salmonella enterica subsp. enterica serovar typhimurium. For orientation: In the Ames test, an excess of revertant colonies over the control signals mutagenicity.
The nature of data set [6]: Clearance in rat. To be noted: in vivo. Format: ADME, organism-based.
Data set [7] in a line: Permeability of the compound. Format: ADME. The note with it: not told; read-out: permeability.
For data set [8], the system named is Rattus norvegicus. The experiment in a line: Toxicity in rat assessed as clinical signs up to 500 mg/kg. To be noted: in vivo. Further details: dose 500 mg/kg. The format is organism-based.
The target in a further data set is hERG (KCNH2) (Homo sapiens, UniProt Q12809). The experiment in a line: Inhibition of human ERG at 30 uM.

The source made the active and inactive calls. The calls are words filed in the database; no cut-off is given here.

Sequence of hERG (KCNH2) (Q12809 whole entry): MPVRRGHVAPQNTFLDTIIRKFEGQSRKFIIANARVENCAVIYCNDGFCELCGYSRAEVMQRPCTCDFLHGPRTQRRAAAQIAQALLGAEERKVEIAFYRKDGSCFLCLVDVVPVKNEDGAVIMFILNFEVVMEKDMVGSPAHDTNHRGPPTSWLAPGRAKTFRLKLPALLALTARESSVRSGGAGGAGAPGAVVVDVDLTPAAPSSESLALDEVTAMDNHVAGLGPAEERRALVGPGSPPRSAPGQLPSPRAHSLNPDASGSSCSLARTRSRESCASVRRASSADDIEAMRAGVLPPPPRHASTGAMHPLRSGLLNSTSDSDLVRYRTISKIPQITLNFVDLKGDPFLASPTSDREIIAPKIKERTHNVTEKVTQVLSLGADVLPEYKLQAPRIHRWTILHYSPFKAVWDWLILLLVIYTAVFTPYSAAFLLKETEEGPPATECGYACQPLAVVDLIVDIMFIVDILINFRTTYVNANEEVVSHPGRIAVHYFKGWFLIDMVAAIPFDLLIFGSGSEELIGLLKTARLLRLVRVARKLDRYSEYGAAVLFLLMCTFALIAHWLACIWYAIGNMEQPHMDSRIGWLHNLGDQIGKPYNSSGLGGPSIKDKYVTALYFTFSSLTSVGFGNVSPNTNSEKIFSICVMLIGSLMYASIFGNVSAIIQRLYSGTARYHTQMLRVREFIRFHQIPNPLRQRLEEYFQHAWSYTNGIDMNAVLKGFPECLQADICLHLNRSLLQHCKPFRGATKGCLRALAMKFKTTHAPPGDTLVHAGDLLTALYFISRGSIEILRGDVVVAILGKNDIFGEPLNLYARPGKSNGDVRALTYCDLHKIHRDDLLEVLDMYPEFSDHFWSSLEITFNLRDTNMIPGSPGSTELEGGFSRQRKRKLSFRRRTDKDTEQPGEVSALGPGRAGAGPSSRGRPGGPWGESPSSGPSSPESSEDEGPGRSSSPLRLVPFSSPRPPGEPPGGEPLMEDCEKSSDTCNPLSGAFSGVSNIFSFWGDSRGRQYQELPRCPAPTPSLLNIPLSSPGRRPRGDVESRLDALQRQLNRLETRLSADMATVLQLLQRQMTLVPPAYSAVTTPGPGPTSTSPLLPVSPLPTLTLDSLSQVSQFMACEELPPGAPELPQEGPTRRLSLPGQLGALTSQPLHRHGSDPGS

In the data set with Mus musculus [1], `CC1(C)Oc2ncnc(N)c2N=C1c1ccc([C@H]2CC[C@H](CC(=O)O)CC2)cc1` displayed an ED50 of 0.3 mg/kg.

`Nc1ncnc2c1C(=O)N(c1ccc([C@H]3CC[C@H](CC(=O)O)CC3)cc1)CCO2` [PF-04620110] gave a logD in [2] of -0.15.

Take `Nc1ncnc2c1O[C@@H](c1ccc([C@H]3CC[C@H](CC(=O)O)CC3)cc1)CO2`: the Activity result with Rattus norvegicus [3], in the data set with Rattus norvegicus [5], in the data set with Salmonella typhimurium and in the data set on Rattus norvegicus [8] was “Non-toxic” throughout. For the same compound, in the data set listed under Mus musculus [4], the inhibition result is “Active”. The Stability entry with Liver microsomes is given as “Unstable”. The compound also yielded a log distribution coefficient (logD) in data set [2] of 0.74. Besides, the clearance in data set [6] was found to be 2 mL/min/kg. Further, the Papp in data set [7] is 7.7 ×10⁻⁶ cm/s. Testing at 30 µM on hERG (KCNH2) gave an inhibition of 8%.

The term ED50 denotes the midpoint of the dose-response relation. A higher ED50 goes with a need for a large dose. The logD is the decadic logarithm of the distribution of all forms, ionised or not, between an organic phase and buffer at a given pH. A higher logD goes with a more lipophilic compound. A word on the inhibition: it is the share of the control response that was lost under treatment. As a reminder, the clearance is the volume of plasma or blood freed of the substance per unit of time.
